Source: patent US8778935B2 (Centro Nacional de Investigaciones Oncologicas (CNIO), priority 2009, dated 2014)
Read-outs that look alike come from different tables or passages of the source.

Legend:
PI3K (p110α/p85α) = target: T1, PI3K (p110α/p85α) (Homo sapiens, UniProt P42336); experiment: PI3K Activity Assay (ADP Hunter Plus); assay type: biochemical
T1 construct: purchased Carna Biosciences 07CBS-0402A
Description: The kinase activity was measured by using the commercial ADP Hunter™ Plus assay available from DiscoveRx (#33-016), which is a homogeneous assay to measure the accumulation of ADP, a universal product of kinase activity. […] Reaction was carried out for 1 hour at 25° C. Reagent A and B were sequentially added to the wells and plates were incubated for 30 min at 37° C. […] Values were normalized against the control activity included for each enzyme (i.e., 100% PI3 kinase activity, without compound). These values were plot against the inhibitor concentration and were fit to a sigmoid dose-response curve by using the Graphad software.

phospho-Ser-473-Akt = experiment: PI3K signalling: AKT phosphorylation inhibition, Western blot analysis; assay type: cell-based; details: Homo sapiens, cell assay, read-out: IC50 of AKT Phosphorylation Inhibition (p-AKT cell)
Description: Cell culture: The cell lines were obtained from the American Type Culture Collection (ATCC). U2OS (human osteosarcoma) was cultured in Dulbecco's modified Eagle's medium (DMEM). PC3 (human prostate carcinoma), MCF7 (human breast cardinoma), HCT116 (human colon carcinoma), […], U251 (human glyoblastoma) were grown in RPMI. All media were supplemented with 10% fetal bovine serum (FBS) (Sigma) and antibiotics-antimycotics. Cell were maintained in a humidified incubator at 37° C. with 5% CO2 and passaged when confluent using trypsin/EDTA.
AKT phosphorylation Inhibition. Western Blot Analysis: Subconfluent cells were incubated under different conditions and washed twice with TBS prior to lysis. Lysis buffer was added containing 50 mM Tris HCl, 150 mM NaCl, 1% NP-40, 2 mM Na3VO4, 100 mM NaF, 20 mM Na4P2O7 and protease inhibitor cocktail (Roche Molecular Biochemicals). The proteins were resolved on 10% SDS-PAGE and transferred to nitrocellulose membrane (Schleicher & Schuell, Dassel, Germany). The membranes were incubated overnight at 4° C. with antibodies specific for Akt, phospho-Ser-473-Akt (Cell Signaling Technology) and α-tubulin (Sigma), they were washed and then incubated with IRDye800 conjugated anti-mouse and Alexa Fluor 680 goat anti-rabbit IgG secondary antibodies. The bands were visualized using an Odyssey infrared imaging system (Li-Cor Biosciences).

[1] = PI3Kα activity, quantitative results, read-out: PI3Kα IC50
[2] = quantitative results of Table 4, read-out: PI3Kα IC50
[3] = quantitative results, read-out: PI3Kα IC50
[4] = semi-quantitative results, read-out: PI3Kα IC50 (semi-quantitative class)

T1 sequence (P42336 whole entry): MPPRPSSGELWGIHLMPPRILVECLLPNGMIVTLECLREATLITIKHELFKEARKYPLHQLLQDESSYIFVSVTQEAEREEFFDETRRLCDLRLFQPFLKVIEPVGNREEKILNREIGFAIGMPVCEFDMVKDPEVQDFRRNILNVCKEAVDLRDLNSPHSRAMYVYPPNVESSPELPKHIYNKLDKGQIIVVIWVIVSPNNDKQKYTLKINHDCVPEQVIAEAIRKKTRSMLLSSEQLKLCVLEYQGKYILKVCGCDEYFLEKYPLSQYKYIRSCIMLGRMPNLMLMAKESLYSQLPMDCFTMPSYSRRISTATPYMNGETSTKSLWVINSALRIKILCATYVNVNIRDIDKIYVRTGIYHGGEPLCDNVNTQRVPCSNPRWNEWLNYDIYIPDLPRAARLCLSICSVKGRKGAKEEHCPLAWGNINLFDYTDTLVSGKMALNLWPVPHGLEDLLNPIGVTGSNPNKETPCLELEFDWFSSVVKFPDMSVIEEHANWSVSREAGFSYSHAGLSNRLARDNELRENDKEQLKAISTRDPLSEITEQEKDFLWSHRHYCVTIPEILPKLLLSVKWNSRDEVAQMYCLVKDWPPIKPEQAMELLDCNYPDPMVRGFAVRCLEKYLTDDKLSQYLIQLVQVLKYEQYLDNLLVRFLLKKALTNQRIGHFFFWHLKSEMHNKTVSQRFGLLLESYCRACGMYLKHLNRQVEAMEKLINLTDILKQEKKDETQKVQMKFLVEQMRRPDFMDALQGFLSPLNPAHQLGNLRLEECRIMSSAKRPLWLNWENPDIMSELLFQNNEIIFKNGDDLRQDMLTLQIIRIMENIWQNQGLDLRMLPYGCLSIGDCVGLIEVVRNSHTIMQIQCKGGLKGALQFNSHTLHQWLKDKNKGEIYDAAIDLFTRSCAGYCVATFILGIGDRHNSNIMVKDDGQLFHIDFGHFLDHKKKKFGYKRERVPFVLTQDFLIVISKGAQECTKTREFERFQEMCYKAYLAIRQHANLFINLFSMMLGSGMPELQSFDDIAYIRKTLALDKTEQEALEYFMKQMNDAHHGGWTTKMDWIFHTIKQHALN
T1 sequence (P27986 whole entry partner): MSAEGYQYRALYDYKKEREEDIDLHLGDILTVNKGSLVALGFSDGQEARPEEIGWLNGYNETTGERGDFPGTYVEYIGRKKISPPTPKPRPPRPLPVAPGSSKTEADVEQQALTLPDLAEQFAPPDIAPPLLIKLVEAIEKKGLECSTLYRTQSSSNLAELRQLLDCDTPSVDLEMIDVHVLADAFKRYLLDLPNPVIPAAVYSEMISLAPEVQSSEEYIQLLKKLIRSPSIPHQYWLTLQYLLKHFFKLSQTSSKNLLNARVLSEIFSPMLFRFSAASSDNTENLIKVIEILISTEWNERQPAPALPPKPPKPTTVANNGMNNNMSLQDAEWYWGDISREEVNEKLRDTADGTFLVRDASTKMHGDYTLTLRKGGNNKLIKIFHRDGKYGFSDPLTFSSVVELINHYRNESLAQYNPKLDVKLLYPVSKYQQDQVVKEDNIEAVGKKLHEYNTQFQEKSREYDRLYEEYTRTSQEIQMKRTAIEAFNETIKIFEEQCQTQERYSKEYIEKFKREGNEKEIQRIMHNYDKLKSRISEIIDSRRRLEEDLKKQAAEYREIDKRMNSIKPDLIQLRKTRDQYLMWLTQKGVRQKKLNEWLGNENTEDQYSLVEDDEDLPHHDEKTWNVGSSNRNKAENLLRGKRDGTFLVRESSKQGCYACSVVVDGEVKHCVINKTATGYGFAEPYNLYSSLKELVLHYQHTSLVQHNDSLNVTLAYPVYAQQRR

IC50 (PI3K (p110α/p85α); [1]) [µM]	IC50 (phospho-Ser-473-Akt) [µM]	Structure (SMILES)	other results
0.032	0.149	Nc1ncc(-c2cn3cc(C(F)(F)F)nc3c(N3CCOCC3)n2)cn1 [2-172]	–
0.082	0.095	Nc1ncc(-c2cn3cc(CN4CCS(=O)(=O)CC4)nc3c(N3CCOCC3)n2)cn1 [2-222]	–
0.003	0.06	CCOC(=O)N1CCC(NC(=O)c2cn3cc(-c4cnc(N)nc4)nc(N4CCOCC4)c3n2)CC1 [2-188]	–
–	0.116	O=C(NCCN1CCOCC1)c1cn2cc(-c3cccc4[nH]ncc34)nc(N3CCOCC3)c2n1 [2-142]	IC50 (PI3K (p110α/p85α); [2]): 0.038 µM
–	0.042	CNC(=O)c1cn2cc(-c3cccc4[nH]ncc34)nc(N3CCOCC3)c2n1 [2-79]	IC50 (PI3K (p110α/p85α); [3]): 0.11 µM
–	0.087	NC(=O)c1cn2cc(-c3cccnc3)nc(N3CCCCC3)c2n1 [2-119]	IC50 (PI3K (p110α/p85α); [2]): 0.093 µM
0.05	0.379	Nc1ncc(-c2cn3cc(C4CC4)nc3c(N3CCOCC3)n2)cn1 [2-171]	–
–	0.714	Oc1cccc(-c2cn3cc(C(F)(F)F)nc3c(N3CCOCC3)n2)c1 [2-13, 3-(2-(trifluoromethyl)-8-morpholinoimidazo[1,2-a]pyrazin-6-yl)phenol]	IC50 (PI3K (p110α/p85α); [3]): 0.108 µM; IC50 (PI3K (p110α/p85α); [4]): 0.1 to 1 µM
0.01	0.07	Nc1ncc(-c2cn3cc(C(=O)N[C@H]4CC[C@H](O)CC4)nc3c(N3CCOCC3)n2)cn1 [2-192]	–
–	0.048	CS(=O)(=O)N1CCN(Cc2cn3cc(-c4cccc(O)c4)nc(N4CCOCC4)c3n2)CC1 [2-10, 1-(4-((6-(3-hydroxyphenyl)-8-morpholinoimidazo[1,2-a]pyrazin-2-yl)methyl)-piperazin-1-yl)sulfonylmethane]	–
0.013	0.098	CCS(=O)(=O)N1CCN(Cc2cn3cc(-c4cnc(N)nc4)nc(N4CCOCC4)c3n2)CC1 [2-220]	–
–	–	CC(=O)NCCNC(=O)c1cn2cc(-c3cccc4[nH]ncc34)nc(N3CCOCC3)c2n1 [2-157]	IC50 (PI3K (p110α/p85α); [2]): 0.776 µM
–	–	CN1CCN(c2cnc3c(N4CCOCC4)nc(-c4cccc5[nH]ncc45)cn23)CC1 [2-38, 6-(1H-indazol-4-yl)-3-(4-methylpiperazin-1-yl)-8-morpholinoimidazo[1,2-a]-pyrazine]	IC50 (PI3K (p110α/p85α); [4]): 0.1 to 1 µM
–	–	NC(=O)c1cn2cc(-c3ccncc3)nc(N3CCOCC3)c2n1 [2-91]	IC50 (PI3K (p110α/p85α); [2]): 3.9 µM
–	–	Cc1cn2cc(-c3cncc(O)c3)nc(N3CCOCC3)c2n1 [2-30, 5-(2-methyl-8-morpholinoimidazo[1,2-a]pyrazin-6-yl)pyridin-3-ol]	IC50 (PI3K (p110α/p85α); [3]): 0.235 µM; IC50 (PI3K (p110α/p85α); [4]): 0.1 to 1 µM
0.003	0.244	C[C@@H]1CN(S(C)(=O)=O)C[C@H](C)N1Cc1cn2cc(-c3cnc(N)nc3)nc(N3CCOCC3)c2n1 [2-219]	–
–	–	CS(=O)(=O)N1CCC2(CC1)CN(Cc1cn3cc(-c4cccc5[nH]ncc45)nc(N4CCOCC4)c3n1)C2 [2-150]	IC50 (PI3K (p110α/p85α); [2]): 2.8 µM
0.011	–	CNc1ncc(-c2nc(N3CCOCC3)c3nc(CN4CCN(S(C)(=O)=O)CC4)cn3c2Cl)cn1 [2-207]	–
–	–	Cc1cn2c(Cl)c(-c3cccc4[nH]ncc34)nc(N3CCOCC3)c2n1 [2-54, 5-chloro-6-(1H-indazol-4-yl)-2-methyl-8-morpholinoimidazo[1,2-a]pyrazine]	IC50 (PI3K (p110α/p85α); [3]): 0.266 µM; IC50 (PI3K (p110α/p85α); [4]): 0.1 to 1 µM
–	–	CC(=O)N1CCN(Cc2cn3cc(-c4cccc(O)c4)nc(N4CCOCC4)c3n2)CC1 [2-06, 1-(4-((6-(3-hydroxyphenyl)-8-morpholinoimidazo[1,2-a]pyrazin-2-yl)methyl)-piperazin-1-yl)ethanone]	IC50 (PI3K (p110α/p85α); [3]): 0.451 µM; IC50 (PI3K (p110α/p85α); [4]): 0.1 to 1 µM
–	–	Cc1nc2c(N3CCOCC3)nc(-c3cccc4[nH]ncc34)cn2c1C(=O)NC1CCNCC1 [2-64, 6-(1H-indazol-4-yl)-2-methyl-8-morpholino-N-(piperidin-4-yl)imidazo[1,2-a]-pyrazine-3-carboxamide]	IC50 (PI3K (p110α/p85α); [4]): > 1 µM
0.016	–	CC(C)(c1cn2cc(-c3cnc(N)nc3)nc(N3CCOCC3)c2n1)N1CCN(S(C)(=O)=O)CC1 [2-242]	–
0.11	–	Cc1cn2cc(-c3cnc(N)nc3)nc(N3CCOCC3)c2n1 [2-181]	–
–	0.391	CS(=O)(=O)N1CCN(Cc2cn3cc(-c4cccc5[nH]ncc45)nc(N4CCOCC4)c3n2)CC1 [2-17, 6-(1H-indazol-4-yl)-2-((4-sulfonylmethylpiperazin-1-yl)methyl)-8-morpholino-imidazo[1,2-a]pyrazine]	–
25.4	–	COC(=O)CC1COCCN1c1nc(-c2cnc(N)nc2)cn2cc(C)nc12 (stereo not shown) [2-224]	–
